Measured values: US8993756B2 (Merck Sharp & Dohme Corp., priority 2011, dated 2015)

Legend:
JAK2 = JAK2 (Homo sapiens (Human), UniProt O60674); experiment: Jak Biochemical HTRF Assay (JAK2); details: recombinant GST-tagged catalytic domain, [ATP] 8.5 μM
JAK3 = JAK3 (Homo sapiens (Human), UniProt P52333); experiment: Jak Biochemical HTRF Assay (JAK3); details: recombinant GST-tagged catalytic domain, [ATP] 2.9 μM
Sequence of JAK3 (P52333 822-1111): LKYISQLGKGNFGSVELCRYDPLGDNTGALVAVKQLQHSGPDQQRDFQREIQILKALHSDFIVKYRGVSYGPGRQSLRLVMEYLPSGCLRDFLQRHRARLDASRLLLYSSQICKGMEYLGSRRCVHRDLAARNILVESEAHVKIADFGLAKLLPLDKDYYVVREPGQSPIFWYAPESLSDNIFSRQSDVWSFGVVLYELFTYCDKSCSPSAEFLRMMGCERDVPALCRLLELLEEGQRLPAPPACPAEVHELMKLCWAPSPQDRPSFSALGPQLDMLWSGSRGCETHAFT

Sequence of JAK2 (O60674 849-1124): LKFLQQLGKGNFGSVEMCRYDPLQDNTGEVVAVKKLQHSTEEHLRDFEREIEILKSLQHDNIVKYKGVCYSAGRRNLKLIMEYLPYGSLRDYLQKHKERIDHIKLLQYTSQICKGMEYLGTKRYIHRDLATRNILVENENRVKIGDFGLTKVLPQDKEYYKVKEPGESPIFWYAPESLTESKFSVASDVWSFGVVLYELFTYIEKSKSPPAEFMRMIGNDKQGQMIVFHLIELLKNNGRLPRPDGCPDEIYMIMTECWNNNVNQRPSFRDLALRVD

Row | Compound | IC50 (JAK2) [nM] | IC50 (JAK3) [nM] | IC50 (JAK2; given as range class) [nM] | IC50 (JAK3; given as range class) [nM]
1 | C=CC(=O)N1CCc2ccc(-c3ncnc4[nH]cc(C(=O)OCC)c34)cc21 [Example 4-20, ethyl 4-(1-acryloyl-2,3-dihydro-1H-indol-6-yl)-7H-pyrrolo[2,3-d]pyrimidine-5-carboxylate] | > 1500 | 0.081 |  | 
2 | C=C(Cl)C(=O)Nc1cccc(-c2ncnc3[nH]cc(C(=O)OCC)c23)c1 [Example 5-6, ethyl 4-{3-[(2-chloroacryloyl)amino]phenyl}-7H-pyrrolo[2,3-d]pyrimidine-5-carboxylate] | > 1500 | 0.22 |  | 
3 | CCOC(=O)c1c[nH]c2ncnc(-c3cccc(NC(=O)/C=C/c4ccncc4)c3)c12 [Example 5-17, ethyl 4-(3-{[(2E)-3-pyridin-4-ylprop-2-enoyl]amino}phenyl)-7H-pyrrolo[2,3-d]pyrimidine-5-carboxylate] | > 1500 | 2 |  | 
4 | C/C=C/S(=O)(=O)Nc1cccc(-c2ncnc3[nH]cc(C(=O)OCC)c23)c1 [Example 10-2, ethyl 4-(3-{[(1E)-prop-1-en-1-ylsulfonyl]amino}phenyl)-7H-pyrrolo[2,3-d]pyrimidine-5-carboxylate] | > 1500 | 8.2 |  | 
5 | C/C=C/C(=O)Nc1cccc(-c2ncnc3[nH]cc(C(=O)OCC)c23)c1 [Example 4-6, ethyl 4-{3-[(2E)-but-2-enoylamino]phenyl}-7H-pyrrolo[2,3-d]pyrimidine-5-carboxylate] | 483 | 1.6 |  | 
6 | CC/C=C(\C)C(=O)Nc1cccc(-c2ncnc3[nH]cc(C(=O)OCC)c23)c1 [Example 5-25, ethyl 4-(3-{[(2E)-2-methylpent-2-enoyl]amino}phenyl)-7H-pyrrolo[2,3-d]pyrimidine-5-carboxylate] |  |  | > 500 | 10 to 500
7 | CCOC(=O)c1c[nH]c2ncnc(-c3ccc(-c4ccccc4)cc3)c12 [Example 1-44, ethyl 4-biphenyl-4-yl-7H-pyrrolo[2,3-d]pyrimidine-5-carboxylate] | 47 | 4.2 |  | 
8 | CCOC(=O)c1c[nH]c2ncnc(-c3cccc(O)c3)c12 [Example 1-45, ethyl 4-(3-hydroxyphenyl)-7H-pyrrolo[2,3-d]pyrimidine-5-carboxylate] | 127 | 5.6 |  | 
9 | CCOC(=O)c1c[nH]c2ncnc(-c3cccc(NC(=O)/C=C/C(F)(F)F)c3)c12 [Example 5-42, ethyl 4-(3-{[(2E)-4,4,4-trifluorobut-2-enoyl]amino}phenyl)-7H-pyrrolo[2,3-d]pyrimidine-5-carboxylate] |  |  | > 500 | 10 to 500
10 | C=C(C)C(=O)Nc1cccc(-c2ncnc3[nH]cc(-c4ccccn4)c23)c1 [Example 21-1, N-(3-(5-(Pyridin-2-yl)-7H-pyrrolo[2,3-d]pyrimidin-4-yl)phenyl)methacrylamide] |  |  | > 500 | 10 to 500
11 | C=CC(=O)N(C)c1cccc(-c2ncnc3[nH]cc(C(=O)OCC)c23)c1 [Example 12-1, Ethyl 4-(3-(N-methylacrylamido)phenyl)-7H-pyrrolo[2,3-d]pyrimidine-5-carboxylate] | > 1500 | 0.13 |  | 
12 | C=C(C)C(=O)Nc1cccc(-c2ncnc3[nH]cc(C4=NCC(C)O4)c23)c1 (stereo not drawn) [Example 28, N-(3-(5-(5-Methyl-4,5-dihydrooxazol-2-yl)-7H-pyrrolo[2,3-d]pyrimidin-4-yl)phenyl)methacrylamide] |  |  | > 500 | 10 to 500
13 | CCOC(=O)c1c[nH]c2ncnc(-c3ccc4c(c3)CN(C(=O)OC(C)(C)C)C4=O)c12 [Example 1-77, ethyl 4-[2-(tert-butoxycarbonyl)-1-oxo-2,3-dihydro-1H-isoindol-5-yl]-7H-pyrrolo[2,3-d]pyrimidine-5-carboxylate] |  |  | > 500 | 10 to 500
14 | CCOC(=O)c1c[nH]c2ncnc(-c3cccc(NC(=O)C4=CCCCC4)c3)c12 [Example 5-35, ethyl 4-{3-[(cyclohex-1-en-1-ylcarbonyl)amino]phenyl}-7H-pyrrolo[2,3-d]pyrimidine-5-carboxylate] |  |  | > 500 | 10 to 500
15 | CCOC(=O)c1c[nH]c2ncnc(-c3cccc(NC(=O)C4=COCC4)c3)c12 [Example 5-40] |  |  | > 500 | 10 to 500
